Source: patent US20240301319A1, “PERFUMING COMPOSITIONS” (FIRMNICH SA, priority 2017, published 2024)
Read-outs that look alike come from different tables or passages of the source. Values belong to the compound of their own block, whether it stands above or below them.

What was measured:
[1] = Volatility of perfuming compounds (Tables 4 to 10), with top/middle/bottom note type; assay type: physicochemical
How it was run: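 Volatility is expressed in μg/l in air. Top notes are 70,000 to 100 μg/l, middle notes 99 to 50 μg/l, and bottom notes 49 to 0.1 μg/l. Compounds are grouped by olfactive family: watery, green, fruity, citrus, sweet, gourmand and woody.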

[2] = Odor threshold and odor value of perfuming compounds (Tables 4 to 10)
[3] = Table 6, perfuming compounds having a fruity note
[4] = Table 6, perfuming compounds having a fruity note, note type by volatility
[5] = Table 10, perfuming compounds having a woody note, note type by volatility
[6] = note type (Top/Middle/Bottom) by volatility, perfuming compounds having a green note
[7] = perfuming compounds having a green note
[8] = Table 8, perfuming compounds having a sweet note
[9] = Table 8, perfuming compounds having a sweet note, note type by volatility
[10] = Table 9, perfuming compounds having a gourmand note, note type by volatility
[11] = Table 4, watery note, top, middle or bottom note
[12] = Table 4, watery note, equals volatility divided by odor threshold

Volatility [1, 3]: 6677.64 μg/l air | Type [1, 5]: Top | Volatility ([1]; Table 10, woody note): 6677.64 μg/l air
Compound: CCCCC(CC)C(=O)OC (racemic) [(+−)-methyl 2-ethylhexanoate]
Type [1, 4]: TOP (perfuming compounds having a volatility ranging from 70,000 to 100 μg/l in air are referred to as “top notes”) | Odor Threshold ([2]; Table 10, woody note): 1.74E−01 μg/l air

Volatility [1, 3]: 2885.67 μg/l air | Type [1, 6]: Top | Volatility (μg/l air) [1, 7]: 2885.67 μg/l air
Compound: CCOC(=O)CC(C)=O
Type [1, 4]: TOP (perfuming compounds having a volatility ranging from 70,000 to 100 μg/l in air are referred to as “top notes”) | Odor Threshold (μg/l air) [2, 7]: 5.83E−02 μg/l air

Volatility [1, 3]: 152.99 μg/l air | Volatility [1, 8]: 152.99 μg/l air | Type [1, 9]: Top | Volatility ([1]; Table 9, gourmand note): 152.99 μg/l air | Type [1, 10]: Top
Compound: C=C1CCCC(C)(C)C1C(=O)/C=C/C (racemic)
Type [1, 4]: TOP (perfuming compounds having a volatility ranging from 70,000 to 100 μg/l in air are referred to as “top notes”) | Odor Threshold [2, 8]: 3.73E−03 μg/l air | Odor Value [2, 8]: 4.10E+04 | Odor Threshold ([2]; Table 9, gourmand note): 3.73E−03 μg/l air

Volatility [1, 3]: 560.22 μg/l air | Volatility [1, 8]: 560.22 μg/l air | Type [1, 9]: Top | Volatility ([1]; Table 9, gourmand note): 560.22 μg/l air | Type [1, 10]: Top
Compound: CCCCCC1CCCC1=O (racemic) [(+−)-2-pentylcyclopentanone]
Type [1, 4]: TOP (perfuming compounds having a volatility ranging from 70,000 to 100 μg/l in air are referred to as “top notes”) | Odor Threshold [2, 8]: 1.28E−03 μg/l air | Odor Value [2, 8]: 4.38E+05 | Odor Threshold ([2]; Table 9, gourmand note): 1.28E−03 μg/l air

Volatility (μg/l air) ([1]; Table 4, watery note): 24.85 μg/l air
Compound: CC(C=O)Cc1ccc(C(C)C)cc1 (racemic) [(+−)-3-(4-isopropylphenyl)-2-methylpropanal]
Type [1, 11]: bottom (perfuming compounds having a volatility ranging from 49 to 0.1 μg/l in air are referred to as “bottom notes”) | Odor Threshold (μg/l air) ([2]; Table 4, watery note): 3.00E−03 μg/l air | Odor Value [2, 12]: 8.28E+03

Compound: CC(C)OCCc1ccccc1 [(2-ISOPROPOXYETHYL)BENZENE]
Volatility (μg/l air) [1]: 1714.82 μg/l air | Type [1, 6]: Top | Odor Threshold (μg/l air) [2, 7]: 1.65E−03 μg/l air

Volatility [1, 8]: 295.34 μg/l air | Type [1, 9]: Top
Compound: CCCC1CCC(=O)O1 (racemic) [(+−)-4-HEPTANOLIDE]
Odor Threshold [2, 8]: 5.18E−04 μg/l air | Odor Value [2, 8]: 5.70E+05

Volatility (μg/l air) ([1]; Table 4, watery note): 13.68 μg/l air | Volatility (μg/l air) ([1]; Table 7, citrus note): 13.68 μg/l air | Type ([1]; Table 7, citrus note, top, middle or bottom note): Bottom
Compound: 3-(3,3-dimethyl-2,3-dihydro-1H-inden-5-yl)propanal (A) + 3-(1,1-dimethyl-2,3-dihydro-1H-inden-4-yl)propanal (B) + 3-(1,1-dimethyl-2,3-dihydro-1H-inden-5-yl)propanal (C)
Type [1, 11]: bottom (perfuming compounds having a volatility ranging from 49 to 0.1 μg/l in air are referred to as “bottom notes”) | Odor Threshold (μg/l air) ([2]; Table 4, watery note): 4.00E−03 μg/l air | Odor Value [2, 12]: 3.42E+03 | Odor Threshold (μg/l air) ([2]; Table 7, citrus note): 4.00E−03 μg/l air | Odor Value ([2]; Table 7, citrus note, equals volatility divided by odor threshold): 3.42E+03

Volatility [1, 3]: 184.60 μg/l air | Volatility [1, 8]: 184.60 μg/l air | Type [1, 9]: Top | Volatility ([1]; Table 9, gourmand note): 184.60 μg/l air | Type [1, 10]: Top
Compound: C/C=C/c1ccc(OC)cc1 [1-methoxy-4-[(1E)-1-propen-1-yl]benzene]
Type [1, 4]: TOP (perfuming compounds having a volatility ranging from 70,000 to 100 μg/l in air are referred to as “top notes”) | Odor Threshold [2, 8]: 1.23E−03 μg/l air | Odor Value [2, 8]: 1.51E+05 | Odor Threshold ([2]; Table 9, gourmand note): 1.23E−03 μg/l air

Volatility [1, 3]: 295.22 μg/l air | Type [1, 6]: Top | Volatility (μg/l air) [1, 7]: 295.22 μg/l air
Compound: C=C(C)CC(C(C)=O)C(=O)OCC (racemic)
Type [1, 4]: TOP (perfuming compounds having a volatility ranging from 70,000 to 100 μg/l in air are referred to as “top notes”) | Odor Threshold (μg/l air) [2, 7]: 3.64E−03 μg/l air

Volatility [1, 3]: 3480.57 μg/l air | Type [1, 6]: Top | Volatility (μg/l air) [1, 7]: 3480.57 μg/l air
Compound: C=CC(C)=CCC=C(C)C
Type [1, 4]: TOP (perfuming compounds having a volatility ranging from 70,000 to 100 μg/l in air are referred to as “top notes”) | Odor Threshold (μg/l air) [2, 7]: 2.57E−02 μg/l air

Volatility (μg/l air) ([1]; Table 4, watery note): 0.70 μg/l air
Compound: (+−)-3-(4-hydroxy-4-methylpentyl)-3-cyclohexene-1-carbaldehyde (A) + (+−)-4-(4-hydroxy-4-methylpentyl)-3-cyclohexene-1-carbaldehyde (B)
Type [1, 11]: bottom (perfuming compounds having a volatility ranging from 49 to 0.1 μg/l in air are referred to as “bottom notes”) | Odor Threshold (μg/l air) ([2]; Table 4, watery note): 8.81E−05 μg/l air | Odor Value [2, 12]: 7.92E+03

Volatility [1, 3]: 0.90 μg/l air | Type [1, 4]: Bottom | Volatility [1, 8]: 0.90 μg/l air | Type [1, 9]: Bottom | Volatility ([1]; Table 9, gourmand note): 0.90 μg/l air | Type [1, 10]: Bottom
Compound: CCCCCCCC1CCCC(=O)O1 (racemic) [(+−)-6-heptyltetrahydro-2H-pyran-2-one]
Odor Threshold [2, 3]: 1.27E−04 μg/l air | Odor Value [2, 3]: 7.06E+03 | Odor Threshold [2, 8]: 1.27E−04 μg/l air | Odor Value [2, 8]: 7.06E+03 | Odor Threshold ([2]; Table 9, gourmand note): 1.27E−04 μg/l air

Type [1, 5]: Top | Volatility ([1]; Table 10, woody note): 205.05 μg/l air
Compound: CCC(O)COC1CCCCC1C(C)(C)C (racemic)
Odor Threshold ([2]; Table 10, woody note): 3.53E−02 μg/l air

Volatility [1, 3]: 9.61 μg/l air | Type [1, 4]: Bottom | Volatility [1, 8]: 9.61 μg/l air | Type [1, 9]: Bottom | Volatility ([1]; Table 9, gourmand note): 9.61 μg/l air | Type [1, 10]: Bottom
Compound: CCCCCC1CCCC(=O)O1 (racemic) [(+−)-6-pentyltetrahydro-2H-pyran-2-one]
Odor Threshold [2, 3]: 3.72E−05 μg/l air | Odor Value [2, 3]: 2.58E+05 | Odor Threshold [2, 8]: 3.72E−05 μg/l air | Odor Value [2, 8]: 2.58E+05 | Odor Threshold ([2]; Table 9, gourmand note): 3.72E−05 μg/l air

Volatility [1, 3]: 17.59 μg/l air | Type [1, 4]: Bottom
Compound: COc1ccc(COC(C)=O)cc1 [4-METHOXYBENZYL ACETATE]
Odor Threshold [2, 3]: 9.24E−05 μg/l air | Odor Value [2, 3]: 1.90E+05

Type [1, 5]: Bottom | Volatility ([1]; Table 10, woody note): 42.22 μg/l air
Compound: CO[C@]1(C)CC[C@@]23C[C@@H]1C(C)(C)[C@@H]2CC[C@H]3C (racemic) [(+−)-8-methoxycedrane]
Odor Threshold ([2]; Table 10, woody note): 2.09E−02 μg/l air

Type [1, 6]: Top | Volatility (μg/l air) [1, 7]: 3030.11 μg/l air
Compound: C=CC(O)CCCCC (racemic) [(+−)-1-octen-3-ol]
Odor Threshold (μg/l air) [2, 7]: 1.77E−03 μg/l air

Type [1, 5]: Bottom | Volatility ([1]; Table 10, woody note): 9.23 μg/l air
Compound: CC1(C)CCC[C@@]2(C)[C@H]1CC[C@@]1(C)OCC[C@@H]21
Odor Threshold ([2]; Table 10, woody note): 2.16E−03 μg/l air

Volatility [1, 8]: 56.72 μg/l air | Type [1, 9]: Middle | Volatility ([1]; Table 9, gourmand note): 56.72 μg/l air | Type [1, 10]: Middle
Compound: CC/C=C\CC1=C(C)CCC1=O
Odor Threshold [2, 8]: 2.16E−04 μg/l air | Odor Value [2, 8]: 2.63E+05 | Odor Threshold ([2]; Table 9, gourmand note): 2.16E−04 μg/l air

Volatility [1, 8]: 11.28 μg/l air | Type [1, 9]: Bottom | Volatility ([1]; Table 9, gourmand note): 11.28 μg/l air | Type [1, 10]: Bottom
Compound: C/C=C/c1ccc(O)c(OC)c1 [2-methoxy-4-[(1E)-1-propen-1-yl]phenol]
Odor Threshold [2, 8]: 6.63E−06 μg/l air | Odor Value [2, 8]: 1.70E+06 | Odor Threshold ([2]; Table 9, gourmand note): 6.63E−06 μg/l air

Volatility (μg/l air) ([1]; Table 4, watery note): 632.43 μg/l air
Compound: CC/C=C\CC/C=C/C=O [(2E,6Z)-2,6-NONADIENAL″]
Type [1, 11]: TOP (perfuming compounds having a volatility ranging from 70,000 to 100 μg/l in air are referred to as “top notes”) | Odor Threshold (μg/l air) ([2]; Table 4, watery note): 1.46E−04 μg/l air | Odor Value [2, 12]: 4.34E+06

Type [1, 5]: Bottom | Volatility ([1]; Table 10, woody note): 14.41 μg/l air
Compound: CC(=O)O[C@@H]1CC[C@@H]2C(C)(C)CCC[C@@]2(C)C1 (racemic)
Odor Threshold ([2]; Table 10, woody note): 4.19E−04 μg/l air

Type [1, 6]: Top | Volatility (μg/l air) [1, 7]: 12045.92 μg/l air
Compound: CC(CC=O)CC(C)(C)C (racemic) [(+−)-3,5,5-TRIMETHYLHEXANAL]
Odor Threshold (μg/l air) [2, 7]: 9.37E−03 μg/l air

Type [1, 6]: Top | Volatility (μg/l air) [1, 7]: 472.01 μg/l air
Compound: CCCCCC#CC(=O)OC [METHYL 2-OCTYNOATE]
Odor Threshold (μg/l air) [2, 7]: 8.31E−04 μg/l air

Volatility (μg/l air) ([1]; Table 4, watery note): 4.37 μg/l air | Type [1, 6]: Bottom | Volatility (μg/l air) [1, 7]: 4.37 μg/l air
Compound: CC(C)(C)c1ccc2c(c1)OCC(=O)CO2 [7-(2-methyl-2-propanyl)-2H-1,5-benzodioxepin-3(4H)-one]
Type [1, 11]: bottom (perfuming compounds having a volatility ranging from 49 to 0.1 μg/l in air are referred to as “bottom notes”) | Odor Threshold (μg/l air) ([2]; Table 4, watery note): 1.53E−04 μg/l air | Odor Value [2, 12]: 2.85E+04 | Odor Threshold (μg/l air) [2, 7]: 1.53E−04 μg/l air

Volatility [1, 8]: 0.46 μg/l air | Type [1, 9]: Bottom
Compound: O=C1CCCCCCCCCCC(=O)OCCO1 [1,4-dioxacyclohexadecane-5,16-dione]
Odor Threshold [2, 8]: 7.05E−04 μg/l air | Odor Value [2, 8]: 6.55E+02

Volatility [1, 8]: 143.53 μg/l air | Type [1, 9]: Top | Volatility ([1]; Table 9, gourmand note): 143.53 μg/l air | Type [1, 10]: Top
Compound: C/C=C/C(=O)[C@@H]1[C@@H](C)C=CCC1(C)C (racemic)
Odor Threshold [2, 8]: 1.70E−05 μg/l air | Odor Value [2, 8]: 8.44E+06 | Odor Threshold ([2]; Table 9, gourmand note): 1.70E−05 μg/l air

Type [1, 5]: Top | Volatility ([1]; Table 10, woody note): 172.78 μg/l air
Compound: CC1=CCC(C(C)(C)O)CC1 (racemic) [(+−)-ALPHA-TERPINEOL]
Odor Threshold ([2]; Table 10, woody note): 1.03E−01 μg/l air
